Data published in patent publication US20230348376A1 (TEIJIN PHARMA LIMITED, priority 2020, published 2023).

Experiments:
[1] = system: rat oligodendrocyte progenitor cells; assay: Promotive activity of rat oligodendrocyte progenitor cell differentiation-1 (MBP gene expression, mRNA); assay type: cell-based; conditions: 4 days, MBP/β actin mRNA; for activation at 1 µM: Rattus norvegicus, Oligodendrocyte progenitor cell, 96 h, read-out: promotive activity at T3 base (MBP gene expression; DMSO 0%, T3 100%)
Summary of the method: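 Primary OPCs from 1-day-old SD rat forebrain, isolated by shaking off mixed glial cultures and seeded at 2×10^3 cells/well in B27/CNTF (10 ng/mL) differentiation medium with compound. MBP mRNA measured by one-step TaqMan real-time PCR and expressed as MBP/β-actin ratio.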

[2] = system: mouse neural stem cells (NSCs); assay: Promoting activity in oligodendrocyte differentiation of mouse neural stem cell (GalC immunostaining); assay type: cell-based; conditions: for Gal/C positive ratio Average value: day 10, N=5
Description: To NSC basal medium (100 mL) included in this product, B27 (1 mL), Penicillin-Streptomycin (1 mL), Glutamine (1 mL), bFGF (20 μL), EGF (10 μL), and Heparin (100 μL) were added to prepare the growth medium. Mouse neural stem cells were reconstituted in a T-25 flask using the growth medium and proliferated as a neurosphere by suspension culture. The cells were expanded by passaging at a split ratio=1:2 in a CO2 incubator (5% CO2, 37° C., wet) to obtain the required number of cells. ACCUTASE (Innovative Cell Technologies, Cat. No. AT104) was used as the passage reagent.
The differentiation medium containing test substance was prepared to a target final concentration by diluting a solution of 20 mM compound in DMSO to 10-fold with DMSO and then to 2×10^5-fold with the differentiation medium. Additive-free differentiation medium for control was prepared by diluting DMSO to 2×10^5-fold with the differentiation medium to be a final concentration of 5×10^−5%.
The mouse neural stem cells were seeded on a poly-L-Lysine/Laminin-coated 96-well plate at a cell density of 2.0×10^4 cells/100 μL/well using the differentiation medium and the culture was started in a CO2 incubator (5% CO2, 37° C., wet). The next day, the medium was replaced with the differentiation medium containing a test substance or an additive-free differentiation medium for control, and evaluation of the test substance (N=5) was started (day 0). The medium was replaced every other day by 60% of the medium in the wells. On day 10, cells were fixed and immunostained.
After the medium was removed, the cells were fixed by adding 100 μL of 4% paraformaldehyde-PBS and being incubated at room temperature for 30 minutes. Next, the cells were washed 3 times with PBS, 100 μL of 5% Goat Serum/PBS was added thereto, and the mixture was incubated at room temperature for 30 minutes to perform blocking and membrane permeation treatment. […] After the cells were washed 3 times with PBS, 100 μL of PBS was added to the wells, and the wells were photographed with fluorescence microscopy. Images were taken under the same condition in all wells, and blue fluorescence and green fluorescence were simultaneously photographed.
Using the hybrid cell counting software provided in the fluorescence microscope (Keyence, BZ-X700), co-localized spots of green fluorescence and blue fluorescence were extracted, and the number of these spots was defined as the total number of GalC-positive cells, and the oligodendrocyte differentiation ratio was calculated by the following calculation:the total number of GalC-positive cells/the number of nuclei (number of blue fluorescence spots). A significant difference test was performed by t-test between the additive-free group and the sample-added group.

[3] = system: rat oligodendrocyte progenitor cells; assay: Promotive activity of rat oligodendrocyte progenitor cell differentiation-2 (immunostaining of MBP); assay type: cell-based; conditions: vitamin D derivative 2 μM, T3 30 nM, 4 days
Summary of the method: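 Vitamin D derivatives scored as symbols for promoting differentiation, read out by MBP immunostaining. OPCs taken from supernatant after about 22 h shaking (37 °C, 200 rpm) in separation medium.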

[4] = Evaluation of brain penetration in mice (blood and brain concentration at brain Cmax); assay type: in vivo, mouse; conditions: 1 mg/kg single oral dose, C57BL/6J mice; for Concentration in blood (mean ± SD) at brain Cmax / Concentration in brain (mean ± SD) at brain Cmax: n=3; for Kp: male, C57BL/6J, mouse, brain/plasma, po, 1 mg/kg, read-out: Concentration in brain/in blood ratio at brain Cmax
Summary of the method: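 Male C57BL/6J mice (8 weeks, n=3) dosed orally once at 1 […] mg/kg; plasma and brain collected at 0.25, 0.5, 1, 2, 4 and 8 h. Compound extracted with acetonitrile from brain homogenate and plasma, quantified by LC/MS/MS.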

[5] = molecular target: T1, human VDR (Homo sapiens, UniProt P11473); assay: Evaluation of VDR transcription activity in human osteoblasts (HOS cells), luciferase reporter; conditions: Activity (EC50, VDR transcription activity), HOS cells transfected with human VDR, human RXRα and DR3 luciferase reporter; 21 hours
T1 sequence (P11473 1-427): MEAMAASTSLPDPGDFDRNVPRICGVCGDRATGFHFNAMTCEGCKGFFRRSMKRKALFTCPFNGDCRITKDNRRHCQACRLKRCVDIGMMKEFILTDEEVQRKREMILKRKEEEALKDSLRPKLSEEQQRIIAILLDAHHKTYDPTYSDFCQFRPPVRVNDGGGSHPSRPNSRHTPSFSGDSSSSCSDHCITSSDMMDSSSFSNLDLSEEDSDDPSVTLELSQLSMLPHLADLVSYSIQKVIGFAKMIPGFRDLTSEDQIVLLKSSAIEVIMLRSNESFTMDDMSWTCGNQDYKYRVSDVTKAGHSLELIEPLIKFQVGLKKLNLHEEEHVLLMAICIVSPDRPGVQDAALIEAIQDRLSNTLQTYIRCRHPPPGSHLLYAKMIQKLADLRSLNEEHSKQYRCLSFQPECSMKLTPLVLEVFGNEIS
T1 sequence (P19793 1-462 partner): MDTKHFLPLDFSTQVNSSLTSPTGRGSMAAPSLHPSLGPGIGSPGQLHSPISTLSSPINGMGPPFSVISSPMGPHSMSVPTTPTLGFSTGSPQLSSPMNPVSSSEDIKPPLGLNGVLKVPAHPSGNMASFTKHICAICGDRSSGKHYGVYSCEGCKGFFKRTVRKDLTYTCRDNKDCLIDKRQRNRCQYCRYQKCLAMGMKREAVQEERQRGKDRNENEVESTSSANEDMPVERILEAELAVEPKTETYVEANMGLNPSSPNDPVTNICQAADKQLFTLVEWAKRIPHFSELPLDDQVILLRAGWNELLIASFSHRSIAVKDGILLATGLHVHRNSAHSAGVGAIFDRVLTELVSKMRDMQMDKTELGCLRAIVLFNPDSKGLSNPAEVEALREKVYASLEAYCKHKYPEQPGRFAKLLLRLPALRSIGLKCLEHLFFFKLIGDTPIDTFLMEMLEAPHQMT

| SMILES | promotive activity at T3 base (MBP gene expression; DMSO 0%, T3 100%) ([1]; 1 μM) | promoting activity in a Gal/C-positive oligodendrocyte differentiation ([2]; 1000 nM) | activation at 1 µM [1] | Mean (number of MBP-positive cells/number of Hoechst33342-positive cells) ([3]; Test 2) | Concentration in blood (mean ± SD) at brain Cmax [4] | Concentration in brain (mean ± SD) at brain Cmax [4] | Kp [4] | EC50 [5] | Mean (number of MBP-positive cells/number of Hoechst33342-positive cells) ([3]; Test 1) | Gal/C positive ratio Average value ([2]; 10 nM) | Gal/C positive ratio Average value ([2]; 100 nM) | Gal/C positive ratio Average value ([2]; 1000 nM) |
| --- | --- | --- | --- | --- | --- | --- | --- | --- | --- | --- | --- | --- |
| C=C1/C(=C\C=C2/CCC[C@]3(C)[C@@H]([C@H](C)CCCC(C)(C)O)CC[C@@H]23)C[C@@H](O)C[C@@H]1O [1α,25-dihydroxyvitamin D3, reference compound] | 0% | 1.5 times | – | – | – | – | – | – | – | – | – | – |
| C[C@H](CN1CC[C@H](OC(F)F)C1)[C@H]1CC[C@H]2/C(=C/C=C3C[C@@H](O)C[C@H](O)C3)CCC[C@]12C [Compound B051, (1R,3R)-5-(2-((1R,3aS,7aR,E)-1-((S)-1-((S)-3-(difluoromethoxy)pyrrolidin-1-yl)propan-2-yl)-7a-methyloctahydro-4H-inden-4-ylidene)ethylidene)cyclohexane-1,3-diol] | – | – | ≥ 20% | 0.45 | 0.304 ± 0.035 µM | 644 ± 92 pmol/g | 2.12 | 0.01 to 0.1 µM | – | – | – | – |
| C[C@H](CN1CC[C@@H](C(F)F)C1)[C@H]1CC[C@H]2/C(=C/C=C3C[C@@H](O)C[C@H](O)C3)CCC[C@]12C [Compound B026, (1R,3R)-5-(2-((1R,3aS,7aR,E)-1-((S)-1-((R)-3-(difluoromethyl)pyrrolidin-1-yl)propan-2-yl)-7a-methyloctahydro-4H-inden-4-ylidene)ethylidene)cyclohexane-1,3-diol] | – | – | ≥ 20% | – | 0.218 ± 0.031 µM | 384 ± 40 pmol/g | 1.76 | 0.01 to 0.1 µM | 0.38 | – | – | – |
| C[C@H](CCN1CCOC[C@H]1C)[C@H]1CC[C@H]2/C(=C/C=C3C[C@@H](O)C[C@H](O)C3)CCC[C@]12C [Compound D042, (1R,3R)-5-(2-((1R,3aS,7aR,E)-7a-methyl-1-((R)-4-((R)-3-methylmorpholino)butan-2-yl)octahydro-4H-inden-4-ylidene)ethylidene)cyclohexane-1,3-diol] | – | – | – | – | – | – | – | 0.01 to 0.1 µM | – | 12.25 | 14.27 | 15.80 |
| C[C@H](CN1CCOCC1)[C@H]1CC[C@H]2/C(=C/C=C3C[C@@H](O)C[C@H](O)C3)CCC[C@]12C [Compound D004, (1R,3R)-5-(2-((1R,3aS,7aR,E)-7a-methyl-1-((S)-1-morpholinopropan-2-yl)-octahydro-4H-inden-4-ylidene)ethylidene)cyclohexane-1,3-diol] | – | – | – | – | – | – | – | – | – | 12.61 | 15.55 | 16.76 |
| C=C1[C@H](O)CC(=C/C=C2\CCC[C@]3(C)[C@@H]([C@H](C)CN4CC[C@@H](C(F)F)C4)CC[C@@H]23)C[C@H]1O [Compound B027, (1R,3R)-5-(2-((1R,3aS,7aR,E)-1-((S)-1-((R)-3-(difluoromethyl)pyrrolidin-1-yl)propan-2-yl)-7a-methyloctahydro-4H-inden-4-ylidene)ethylidene)-2-methylenecyclohexane-1,3-diol] | – | – | ≥ 20% | – | 0.126 ± 0.014 µM | 414 ± 40 pmol/g | 3.29 | 0.001 to 0.01 µM | 0.29 | – | – | – |
| C=C1/C(=C\C=C2/CCC[C@]3(C)[C@@H]([C@H](C)CCN4CCOC[C@@H]4C)CC[C@@H]23)C[C@@H](O)CC1O (stereo in doubt) [Compound D045, (1R,3R,Z)-5-(2-((1R,3aS,7aR,E)-7a-methyl-1-((R)-4-((S)-3-methylmorpholino)butan-2-yl)octahydro-4H-inden-4-ylidene)ethylidene)-4-methylenecyclohexane-1,3-diol] | – | – | – | – | – | – | – | 0.01 to 0.1 µM | – | 11.46 | 12.01 | 14.93 |
| C=C1[C@H](O)CC(=C/C=C2\CCC[C@]3(C)[C@@H]([C@H](C)CN4CC[C@H](CC(F)F)C4)CC[C@@H]23)C[C@H]1O [Compound B040, (1R,3R)-5-(2-((1R,3aS,7aR,E)-1-((S)-1-((R)-3-(2,2-difluoroethyl)pyrrolidin-1-yl)propan-2-yl)-7a-methyloctahydro-4H-inden-4-ylidene)ethylidene)-2-methylenecyclohexane-1,3-diol] | – | – | ≥ 20% | – | 0.07 ± 0.01 µM | 153 ± 35 pmol/g | 2.18 | 0.001 to 0.01 µM | 0.59 | – | – | – |
| C=C1[C@H](O)CC(=C/C=C2\CCC[C@]3(C)[C@@H]([C@H](C)CN4CC[C@H](OCC(F)F)C4)CC[C@@H]23)C[C@H]1O [Compound B055, (1R,3R)-5-(2-((1R,3aS,7aR,E)-1-((S)-1-((S)-3-(2,2-difluoroethoxy)pyrrolidin-1-yl)propan-2-yl)-7a-methyloctahydro-4H-inden-4-ylidene)ethylidene)-2-methylenecyclohexane-1,3-diol] | – | – | ≥ 20% | 0.56 | 0.309 ± 0.017 µM | 327 ± 28 pmol/g | 1.06 | 0.001 to 0.01 µM | – | – | – | – |
